One series has as its target T1, human NaV1.7 (Homo sapiens, UniProt Q15858).
T1 construct: permanently transfected with an expression vector containing the full-length cDNA coding for the desired human sodium channel α-subunit; expressed in transfected cells; host or cells: HEK-293
Briefly: Patch voltage clamp electrophysiology assay (EP), NaV1.7. The format is cell-based. The note with it: HEK-293 cells stably expressing NaV1.7 with β1 subunit; whole-cell patch clamp, membrane potential −60 mV (inactivated state). In short, it runs like this: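 HEK-293 cells stably expressing human α-subunit with β1; whole-cell patch clamp (PatchXpress or manual), ambient temperature, pH 7.4 external NaCl, CsF internal. Held at −60 mV (full inactivation), stepped to −150 mV for 20 ms, then test pulse; percent current decrease after compound wash-on taken as block.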
(In general: The patch-clamp technique gives a direct electrical read-out from membranes.)

Another series has as its target T2, NaV1.5 (Homo sapiens, UniProt Q14524).
T2 construct: permanently transfected with an expression vector containing the full-length cDNA coding for the desired human sodium channel α-subunit; expressed in transfected cells; host or cells: HEK-293
Briefly: Patch voltage clamp electrophysiology assay (EP), NaV1.5. It counts as cell-based. As to conditions: HEK-293 cells stably expressing NaV1.5 with β1 subunit, whole-cell patch clamp, membrane potential −60 mV (inactivated state). On the procedure: The following patch voltage clamp electrophysiology studies were performed on representative compounds of the invention using human embryonic kidney cells (HEK), permanently transfected with an expression vector containing the full-length cDNA coding for the desired human sodium channel α-subunit, grown in culture media containing 10% FBS, 1% PSG, and 0.5 mg/mL G418 at 37° C. with 5% CO2. […] NaV1.7 and NaV1.5 cDNAs (NM_002977 and AC137587; SCN5A, respectively) were stably expressed in HEK-293 cells. The β1 subunit was coexpressed in both the NaV1.7 and NaV1.5 cell lines.
Sodium currents were measured using the patch clamp technique in the whole-cell configuration using either a PatchXpress automated voltage clamp or manually using an Axopatch 200B (Axon Instruments) or Model 2400 (A-M systems) amplifier. The manual voltage clamp protocol was as follows: Borosilicate glass micropipettes were fire-polished to a tip diameter yielding a resistance of 2-4 Mohms in the working solutions. The pipette was filled with a solution comprised of: 5 mM NaCl, 10 mM CsCl, 120 mM CsF, 0.1 mM CaCl2, 2 mM MgCl2, 10 mM HEPES, 10 mM EGTA; and adjusted to pH 7.2 with CsOH. The external solution had the following composition: 140 mM NaCl, 5 mM KCl, 2 mM CaCl2, 1 mM MgCl2, 10 mM HEPES; and adjusted to pH 7.4 with NaOH. In some studies, the external sodium was reduced by equimolar replacement with choline. Osmolarity in the CsF internal and NaCl external solutions was adjusted to 300 mOsm/kg and 310 mOsm/kg with glucose, respectively. All recordings were performed at ambient temperature in a bath chamber with a volume of 150 μL. Control sodium currents were measured in 0.5% DMSO. Controls and representative compounds of the invention were applied to the recording chamber through a 4-pinch or 8-pinch valve bath perfusion system manufactured by ALA Scientific Instruments.
Series resistance compensation was applied (60-80%). […] All statistics in this study are given as mean±SD.
The membrane potential was maintained at a voltage where inactivation of the channel is complete (which was −60 mV for both NaV1.7 and NaV1.5). The voltage is then stepped back to a very negative (Vhold=[…]) voltage for 20 ms and then a test pulse is applied to quantify the compound block. […] The percent decrease in sodium current following wash-on of compound was taken as the percent block of sodium channels.

The next series concerns the target T3, hNav1.7 (Homo sapiens, UniProt Q15858).
T3 construct: expressed in transfected cells
Briefly: Tritiated compound binding (LBA) to membranes from cells expressing hNav1.7 and the β1 subunit, competitive binding. The note with it: competitive binding vs 100 pM [3H]compound, 18 h, room temperature, membranes with hNav1.7 and β1 subunit. In short, it runs like this: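 Membranes from cells expressing hNav1.7 with β1 were incubated 18 h at room temperature with 100 pM tritiated formula (I) compound and increasing test compound, in 100 mM NaCl, 20 mM Tris HCl pH 7.4, 0.01% BSA.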

The source of these data is US10125098B2, “Therapeutic compounds and methods of use thereof” (GENENTECH, INC., priority 2014, dated 2018).

Each structure is given as a SMILES string. pIC50: −log10 of the molar value. Read-outs that look alike come from different tables or passages of the source. Bounds are passed on as bounds.

T2 sequence (Q14524 whole entry): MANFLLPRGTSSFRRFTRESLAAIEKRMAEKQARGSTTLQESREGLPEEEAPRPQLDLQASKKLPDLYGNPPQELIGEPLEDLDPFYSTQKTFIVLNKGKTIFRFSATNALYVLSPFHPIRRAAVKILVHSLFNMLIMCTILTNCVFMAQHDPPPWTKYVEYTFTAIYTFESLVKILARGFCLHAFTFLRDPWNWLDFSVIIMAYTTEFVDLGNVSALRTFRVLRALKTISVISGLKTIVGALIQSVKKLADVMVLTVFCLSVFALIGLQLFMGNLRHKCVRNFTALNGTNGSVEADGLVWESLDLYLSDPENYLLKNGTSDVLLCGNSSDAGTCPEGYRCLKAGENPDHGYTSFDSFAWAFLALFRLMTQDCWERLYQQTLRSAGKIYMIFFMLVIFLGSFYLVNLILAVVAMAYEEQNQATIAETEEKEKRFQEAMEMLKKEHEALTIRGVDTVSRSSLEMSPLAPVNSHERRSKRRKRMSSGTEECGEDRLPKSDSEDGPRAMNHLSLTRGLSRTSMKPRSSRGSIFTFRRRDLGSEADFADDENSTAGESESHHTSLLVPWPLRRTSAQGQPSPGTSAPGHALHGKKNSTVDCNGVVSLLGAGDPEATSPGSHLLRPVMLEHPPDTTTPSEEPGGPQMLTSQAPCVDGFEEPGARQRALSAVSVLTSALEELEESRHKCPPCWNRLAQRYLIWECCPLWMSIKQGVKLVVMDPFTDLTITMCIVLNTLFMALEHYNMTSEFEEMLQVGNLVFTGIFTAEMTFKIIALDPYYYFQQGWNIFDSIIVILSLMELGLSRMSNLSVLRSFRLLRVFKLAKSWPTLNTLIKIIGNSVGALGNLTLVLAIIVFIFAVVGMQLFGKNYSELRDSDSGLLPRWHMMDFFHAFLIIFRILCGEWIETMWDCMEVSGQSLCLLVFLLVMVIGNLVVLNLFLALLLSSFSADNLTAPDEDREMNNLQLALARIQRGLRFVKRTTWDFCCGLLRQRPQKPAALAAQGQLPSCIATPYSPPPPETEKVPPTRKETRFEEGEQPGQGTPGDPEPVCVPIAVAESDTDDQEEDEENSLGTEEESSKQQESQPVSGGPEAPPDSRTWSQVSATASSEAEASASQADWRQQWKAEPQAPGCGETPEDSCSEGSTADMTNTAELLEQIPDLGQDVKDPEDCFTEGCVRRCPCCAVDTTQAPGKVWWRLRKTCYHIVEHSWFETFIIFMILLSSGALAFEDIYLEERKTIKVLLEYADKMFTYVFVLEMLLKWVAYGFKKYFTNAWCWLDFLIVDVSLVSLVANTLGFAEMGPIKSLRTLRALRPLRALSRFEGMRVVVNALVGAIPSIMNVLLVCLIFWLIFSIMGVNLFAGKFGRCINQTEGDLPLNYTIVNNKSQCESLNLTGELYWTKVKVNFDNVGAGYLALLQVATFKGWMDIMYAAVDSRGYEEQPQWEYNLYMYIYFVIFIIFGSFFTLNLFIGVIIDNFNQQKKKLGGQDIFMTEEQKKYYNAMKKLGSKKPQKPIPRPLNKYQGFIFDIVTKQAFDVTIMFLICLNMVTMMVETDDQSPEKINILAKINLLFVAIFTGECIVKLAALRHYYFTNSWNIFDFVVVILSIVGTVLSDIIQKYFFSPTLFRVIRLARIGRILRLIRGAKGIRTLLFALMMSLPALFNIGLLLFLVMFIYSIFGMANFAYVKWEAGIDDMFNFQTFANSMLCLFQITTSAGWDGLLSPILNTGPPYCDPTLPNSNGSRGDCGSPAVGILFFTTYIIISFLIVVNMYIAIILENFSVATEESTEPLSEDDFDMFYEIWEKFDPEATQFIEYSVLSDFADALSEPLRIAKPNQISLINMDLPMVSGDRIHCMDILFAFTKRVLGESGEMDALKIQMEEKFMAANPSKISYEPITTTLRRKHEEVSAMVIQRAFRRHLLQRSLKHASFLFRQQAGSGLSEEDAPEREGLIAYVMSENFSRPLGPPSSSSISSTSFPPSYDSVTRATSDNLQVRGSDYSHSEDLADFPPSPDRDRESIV
T3 sequence (Q15858 1-1977 isoform Q15858-3): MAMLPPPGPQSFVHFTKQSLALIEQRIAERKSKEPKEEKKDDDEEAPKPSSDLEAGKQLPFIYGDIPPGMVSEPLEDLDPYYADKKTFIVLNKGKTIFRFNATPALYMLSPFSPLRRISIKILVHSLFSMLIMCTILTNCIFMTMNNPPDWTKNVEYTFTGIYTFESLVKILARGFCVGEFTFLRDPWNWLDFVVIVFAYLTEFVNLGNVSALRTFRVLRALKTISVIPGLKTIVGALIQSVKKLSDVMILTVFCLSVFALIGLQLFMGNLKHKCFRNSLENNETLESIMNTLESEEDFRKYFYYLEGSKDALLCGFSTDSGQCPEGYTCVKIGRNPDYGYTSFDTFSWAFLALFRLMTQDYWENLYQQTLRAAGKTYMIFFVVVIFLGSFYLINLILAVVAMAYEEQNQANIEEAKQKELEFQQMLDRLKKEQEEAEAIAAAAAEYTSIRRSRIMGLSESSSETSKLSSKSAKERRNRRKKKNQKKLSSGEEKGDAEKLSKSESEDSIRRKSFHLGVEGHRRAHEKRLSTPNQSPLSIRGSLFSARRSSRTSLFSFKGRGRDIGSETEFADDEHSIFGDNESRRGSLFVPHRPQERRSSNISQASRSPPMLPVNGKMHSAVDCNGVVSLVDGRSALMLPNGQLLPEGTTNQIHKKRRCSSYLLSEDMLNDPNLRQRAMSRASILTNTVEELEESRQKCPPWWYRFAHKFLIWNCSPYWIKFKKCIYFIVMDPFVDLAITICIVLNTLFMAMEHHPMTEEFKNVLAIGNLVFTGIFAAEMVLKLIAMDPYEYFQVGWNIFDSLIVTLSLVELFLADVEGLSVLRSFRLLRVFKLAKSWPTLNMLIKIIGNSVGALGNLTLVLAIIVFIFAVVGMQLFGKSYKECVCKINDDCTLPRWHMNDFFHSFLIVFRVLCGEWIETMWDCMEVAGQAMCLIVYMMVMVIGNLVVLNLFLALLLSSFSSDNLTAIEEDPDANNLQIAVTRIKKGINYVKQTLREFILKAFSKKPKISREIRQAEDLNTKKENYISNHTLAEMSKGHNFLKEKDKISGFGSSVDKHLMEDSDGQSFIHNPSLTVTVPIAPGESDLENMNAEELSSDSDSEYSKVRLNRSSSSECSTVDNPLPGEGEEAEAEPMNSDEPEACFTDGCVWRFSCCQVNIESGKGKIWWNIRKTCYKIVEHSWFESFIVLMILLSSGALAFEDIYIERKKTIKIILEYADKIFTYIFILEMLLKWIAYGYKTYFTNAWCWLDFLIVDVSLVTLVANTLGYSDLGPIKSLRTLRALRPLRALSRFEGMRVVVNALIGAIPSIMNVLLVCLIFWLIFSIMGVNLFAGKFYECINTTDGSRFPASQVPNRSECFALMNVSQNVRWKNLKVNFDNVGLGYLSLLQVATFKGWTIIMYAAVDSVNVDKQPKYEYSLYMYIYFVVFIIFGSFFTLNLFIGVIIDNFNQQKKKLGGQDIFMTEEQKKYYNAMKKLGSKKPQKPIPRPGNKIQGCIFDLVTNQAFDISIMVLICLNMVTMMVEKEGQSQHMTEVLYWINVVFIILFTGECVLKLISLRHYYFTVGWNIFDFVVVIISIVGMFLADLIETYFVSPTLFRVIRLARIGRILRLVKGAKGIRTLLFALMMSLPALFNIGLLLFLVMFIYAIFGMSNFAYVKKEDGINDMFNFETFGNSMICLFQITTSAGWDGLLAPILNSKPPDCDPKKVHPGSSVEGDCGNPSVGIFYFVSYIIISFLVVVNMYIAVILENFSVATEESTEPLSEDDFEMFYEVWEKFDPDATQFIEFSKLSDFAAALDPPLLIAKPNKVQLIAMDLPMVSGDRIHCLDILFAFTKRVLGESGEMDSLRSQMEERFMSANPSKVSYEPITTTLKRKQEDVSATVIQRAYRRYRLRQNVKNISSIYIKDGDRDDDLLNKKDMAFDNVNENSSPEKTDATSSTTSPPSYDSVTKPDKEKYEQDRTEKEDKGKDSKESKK
T3 sequence (Q07699 19-218 partner): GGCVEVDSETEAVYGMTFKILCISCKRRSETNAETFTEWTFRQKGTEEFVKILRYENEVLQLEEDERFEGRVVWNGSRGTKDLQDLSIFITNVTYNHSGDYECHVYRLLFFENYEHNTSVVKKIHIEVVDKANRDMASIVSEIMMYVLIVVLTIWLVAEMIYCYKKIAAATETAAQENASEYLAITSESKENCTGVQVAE
T1 sequence (Q15858 1-1977 isoform Q15858-3): as the sequence (Q15858 1-1977 isoform Q15858-3) above
T1 sequence (Q07699 19-218 partner): as the sequence (Q07699 19-218 partner) above

As to `O=C(O)[C@@H]1[C@H]2C[C@H]2CN1C(=O)c1cc(C2CC2)c(OCC23CC4CC(CC(C4)C2)C3)cc1F` (stereo in doubt) [Example 171, 3-[4-(1-adamantylmethoxy)-5-cyclopropyl-2-fluoro-benzoyl]-3-azabicyclo[3.1.0]hexane-4-carboxylic acid], the pIC50 at human NaV1.7 was 6.62; at NaV1.5 (read-out: Nav1.5), 5.05; on hNav1.7 it was 7.60.

With `O=C(O)[C@@H]1CCCN1C(=O)c1cc(C2CC2)c(OCC23CC4CC(CC(C4)C2)C3)cc1F` [Example 1, (S)-1-(4-(adamantan-1-ylmethoxy)-5-cyclopropyl-2-fluorobenzoyl)pyrrolidine-2-carboxylic acid], the pIC50 was 7.87 at human NaV1.7, 5.46 on NaV1.5 (read-out: Nav1.5) and 7.71 at hNav1.7.

In the case of `O=C(NC1(C(=O)O)CC1)c1cc(C2CC2)c(OCC23CC4CC(CC(C4)C2)C3)cc1F` [Example 6, 1-(4-(adamantan-1-ylmethoxy)-5-cyclopropyl-2-fluorobenzamido)-cyclopropanecarboxylic acid], the pIC50 against human NaV1.7 is 6.27; on NaV1.5 (read-out: Nav1.5), 5.67; at hNav1.7 it was 5.45.

As to `C[C@H](NC(=O)c1cc(C2CC2)c(OCC23CC4CC(CC(C4)C2)C3)cc1F)C(=O)O` [Example 11, (S)-2-(4-(adamantan-1-ylmethoxy)-5-cyclopropyl-2-fluorobenzamido)propanoic acid], the values for the pIC50 on human NaV1.7, at NaV1.5 (read-out: Nav1.5) and at hNav1.7 were 7.44, 5.66 and 6.70, respectively.

Consider `O=C(O)[C@H]1CSCN1C(=O)c1cc(C2CC2)c(OCC23CC4CC(CC(C4)C2)C3)cc1F` [Example 50, (4S)-3-[4-(1-adamantylmethoxy)-5-cyclopropyl-2-fluoro-benzoyl]thiazolidine-4-carboxylic acid], for which the pIC50 is 6.47 on human NaV1.7, 4.71 at NaV1.5 (read-out: Nav1.5) and 7.52 on hNav1.7.

For `C[C@@]1(C(=O)O)CCCN1C(=O)c1cc(C2CC2)c(OCC23CC4CC(CC(C4)C2)C3)cc1F` [Example 51, (S)-1-(4-((adamantan-1-yl)methoxy)-5-cyclopropyl-2-fluorobenzoyl)-2-methylpyrrolidine-2-carboxylic acid], the pIC50 on human NaV1.7 is 6.04; on NaV1.5 (read-out: Nav1.5), 4.85; on hNav1.7 it was 7.00.

For `CC(C)(C)[C@H](NC(=O)c1cc(C2CC2)c(OCC23CC4CC(CC(C4)C2)C3)cc1F)C(=O)O` [Example 52, (S)-2-(4-(adamantan-1-ylmethoxy)-5-cyclopropyl-2-fluorobenzamido)-3,3-dimethylbutanoic acid], the pIC50 against human NaV1.7 is 5.85; at NaV1.5 (read-out: Nav1.5), 5.12; on hNav1.7 it was 7.01.

Turning to `O=C(N[C@H](C(=O)O)C1CC1)c1cc(C2CC2)c(OCC2CCN(C(c3cc(Cl)cc(Cl)c3)C(F)(F)F)CC2)cc1F` (stereo partly drawn) [Example 53, (2S)-2-cyclopropyl-2-(5-cyclopropyl-4-((1-(1-(3,5-dichlorophenyl)-2,2,2-trifluoroethyl)piperidin-4-yl)methoxy)-2-fluorobenzamido)acetic acid], the pIC50 is 5.70 against human NaV1.7, 4.85 at NaV1.5 (read-out: Nav1.5) and 7.77 on hNav1.7.

As for `O=C(c1cc(C2CC2)c(OCC23CC4CC(CC(C4)C2)C3)cc1F)N1CCC[C@H]1c1nnn[nH]1` [Example 54, ((S)-2-(1H-tetrazol-5-yl)pyrrolidin-1-yl)(4-(adamantan-1-ylmethoxy)-5-cyclopropyl-2-fluorophenyl)methanone], the pIC50 is 6.21 against human NaV1.7, 5.01 at NaV1.5 (read-out: Nav1.5) and 7.24 on hNav1.7.

Take `CC1(COc2cc(F)c(C(=O)N3CCC[C@H]3C(=O)O)cc2C2CC2)CCC2(CC1)CC2(F)F` (stereo partly drawn) [Example 55, (5-cyclopropyl-4-((1,1-difluoro-6-methylspiro[2.5]octan-6-yl)methoxy)-2-fluorobenzoyl)-L-proline]: the pIC50 was 6.10 at human NaV1.7, 4.54 at NaV1.5 (read-out: Nav1.5) and 6.60 at hNav1.7.

As to `O=C(O)[C@@H]1CCCN1C(=O)c1cc(C2CC2)c(OCC23CCC(F)(CC2)CC3)cc1F` [Example 56, (5-cyclopropyl-2-fluoro-4-((4-fluorobicyclo[2.2.2]octan-1-yl)methoxy)benzoyl)-L-proline], the pIC50 was 5.74 against human NaV1.7; at most 4.52 against NaV1.5 (human, HEK-293 cells stably expressing human NaV1.5 with β1 subunit, pH 7.4); 6.39 at hNav1.7.

For the compound `C[C@@H](O)[C@H](NC(=O)c1cc(C2CC2)c(OCC23CC4CC(CC(C4)C2)C3)cc1F)C(=O)O` [Example 57], the pIC50 against human NaV1.7 was 5.68; at NaV1.5 (read-out: Nav1.5) it was 4.64; at hNav1.7 it was 6.37.

Turning to `CC1(COc2cc(F)c(C(=O)N3CCC[C@H]3C(=O)O)cc2C2CC2)CCC2(CC1)CC2` [Example 58, (5-cyclopropyl-2-fluoro-4-((6-methylspiro[2.5]octan-6-yl)-methoxy)benzoyl)-L-proline], the pIC50 on human NaV1.7 is 6.20; on NaV1.5 (read-out: Nav1.5), 4.68; on hNav1.7, 7.08.

Take `CO[C@@H]1C[C@@H](C(=O)O)N(C(=O)c2cc(C3CC3)c(OCC34CC5CC(CC(C5)C3)C4)cc2F)C1` [Example 59, (2S,4R)-1-(4-((adamantan-1-yl)methoxy)-5-cyclopropyl-2-fluorobenzoyl)-4-methoxypyrrolidine-2-carboxylic acid]: the values for the pIC50 against human NaV1.7, at NaV1.5 (read-out: Nav1.5) and on hNav1.7 were 6.26, 4.59 and 7.47, respectively.

Take `O=C(O)[C@@H]1C[C@H]2C[C@H]2N1C(=O)c1cc(C2CC2)c(OCC23CC4CC(CC(C4)C2)C3)cc1F` [Example 60, (1R, 3S, 5R)-2-(4-((adamantan-1-yl)methoxy)-5-cyclopropyl-2-fluorobenzoyl)-2-azabicyclo[3.1.0]hexane-3-carboxylic acid]: the pIC50 was 5.72 against human NaV1.7, 4.89 on NaV1.5 (read-out: Nav1.5) and 6.47 on hNav1.7.

As to `O=C(O)[C@@H]1[C@H](O)CCN1C(=O)c1cc(C2CC2)c(OCC23CC4CC(CC(C4)C2)C3)cc1F` [Example 62, (2S, 3R)-1-(4-((adamantan-1-yl)methoxy)-5-cyclopropyl-2-fluorobenzoyl)-3-hydroxypyrrolidine-2-carboxylic acid], the results for the pIC50 on human NaV1.7, at NaV1.5 (read-out: Nav1.5) and on hNav1.7 were 5.96, 4.55 and 6.80, respectively.

Regarding `O=C(O)[C@@H]1[C@H](F)CCN1C(=O)c1cc(C2CC2)c(OCC23CC4CC(CC(C4)C2)C3)cc1F` [Example 63, (2R, 3R)-1-(4-((adamantan-1-yl)methoxy)-5-cyclopropyl-2-fluorobenzoyl)-3-fluoropyrrolidine-2-carboxylic acid], the figures for the pIC50 against human NaV1.7, on NaV1.5 (read-out: Nav1.5) and on hNav1.7 were 6.01, 4.74 and 6.77, respectively.

Regarding `O=C(O)[C@@H]1[C@@H](F)CCN1C(=O)c1cc(C2CC2)c(OCC23CC4CC(CC(C4)C2)C3)cc1F` [Example 64, (2R,3S)-1-(4-((adamantan-1-yl)methoxy)-5-cyclopropyl-2-fluorobenzoyl)-3-fluoropyrrolidine-2-carboxylic acid], the pIC50 was 6.10 against human NaV1.7, 5.07 on NaV1.5 (read-out: Nav1.5) and 7.22 at hNav1.7.

As to `O=C(O)C1CCN(C(=O)c2cc(C3CC3)c(OCC34CC5CC(CC(C5)C3)C4)cc2F)C1` (stereo not drawn) [Example 65, 1-(4-(adamantan-1-ylmethoxy)-5-cyclopropyl-2-fluorobenzoyl)pyrrolidine-3-carboxylic acid], the results for the pIC50 at human NaV1.7, at NaV1.5 (read-out: Nav1.5) and on hNav1.7 were 5.28, 4.64 and at most 5.00, respectively.
